Consider seven molecules from patent publication US20230272448A1, “AN IMPROVED SUBSTRATE COCKTAIL ASSAY FOR HIGH-THROUGHPUT SCREENING OF CYTOCHROME P450 INHIBITORS” (priority 2020, published 2023).

Data set [1] addresses T1, CYP2C8 (Homo sapiens, UniProt P10632).
T1 sequence (P10632 1-490): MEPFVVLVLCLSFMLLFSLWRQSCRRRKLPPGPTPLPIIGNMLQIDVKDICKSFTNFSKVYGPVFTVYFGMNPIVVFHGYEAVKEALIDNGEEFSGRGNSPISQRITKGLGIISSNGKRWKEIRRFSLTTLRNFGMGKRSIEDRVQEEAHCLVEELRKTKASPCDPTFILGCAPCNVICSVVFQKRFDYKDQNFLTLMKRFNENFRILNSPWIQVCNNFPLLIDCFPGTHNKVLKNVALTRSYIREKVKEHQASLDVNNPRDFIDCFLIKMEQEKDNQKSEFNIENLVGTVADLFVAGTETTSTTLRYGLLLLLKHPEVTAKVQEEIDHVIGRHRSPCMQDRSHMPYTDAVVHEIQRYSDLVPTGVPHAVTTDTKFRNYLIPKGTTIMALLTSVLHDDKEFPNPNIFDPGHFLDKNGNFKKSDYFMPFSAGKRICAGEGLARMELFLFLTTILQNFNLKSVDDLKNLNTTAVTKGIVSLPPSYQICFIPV
Description: Single substrate (individual) CYP inhibition assay in human liver microsomes, LC-MS/MS. The settings on record: read-out: Single Substrate IC50; substrate Paclitaxel 5 μM; HLM 0.2 mg/mL; 30 min; n = 4.

Data set [2] addresses T2, CYP3A4 (Homo sapiens, UniProt P08684). The settings on record: reported; cited from earlier work.
The target in data set [3] is T3, CYP2B6 (Homo sapiens, UniProt P20813).
T3 sequence (P20813 1-491): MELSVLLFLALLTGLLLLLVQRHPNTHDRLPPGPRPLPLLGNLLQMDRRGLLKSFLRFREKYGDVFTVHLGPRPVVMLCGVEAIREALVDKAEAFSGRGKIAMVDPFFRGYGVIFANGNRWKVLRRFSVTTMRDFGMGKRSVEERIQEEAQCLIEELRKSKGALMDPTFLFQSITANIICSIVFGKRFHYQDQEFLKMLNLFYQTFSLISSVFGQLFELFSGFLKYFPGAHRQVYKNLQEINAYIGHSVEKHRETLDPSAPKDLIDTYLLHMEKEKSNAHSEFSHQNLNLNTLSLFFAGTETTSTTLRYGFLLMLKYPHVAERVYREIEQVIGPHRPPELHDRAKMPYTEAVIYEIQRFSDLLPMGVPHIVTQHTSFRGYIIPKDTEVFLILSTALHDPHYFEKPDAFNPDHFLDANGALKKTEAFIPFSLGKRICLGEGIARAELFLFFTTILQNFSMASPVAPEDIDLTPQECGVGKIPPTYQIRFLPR
The settings on record: reported; cited from earlier work.

Data set [4] addresses CYP2C9 (Homo sapiens, UniProt P11712). The settings on record: literature reported Km; metabolite hydroxyl-diclofenac; cited from earlier work.
The target in data set [5] is T1, CYP2C8. The settings on record: literature reported Km; metabolite 6-alpha hydroxyl-paclitaxel; cited from earlier work.
Data set [6] addresses T3, CYP2B6. The settings on record: literature reported Km; metabolite hydroxyl-bupropion; cited from earlier work.
In data set [7] the target is T2, CYP3A4. The settings on record: literature reported Km; metabolite hydroxyl-testosterone; cited from earlier work.
Data set [8] concerns the target T4, CYP2A6 (Homo sapiens, UniProt P11509).
T4 sequence (P11509 1-494): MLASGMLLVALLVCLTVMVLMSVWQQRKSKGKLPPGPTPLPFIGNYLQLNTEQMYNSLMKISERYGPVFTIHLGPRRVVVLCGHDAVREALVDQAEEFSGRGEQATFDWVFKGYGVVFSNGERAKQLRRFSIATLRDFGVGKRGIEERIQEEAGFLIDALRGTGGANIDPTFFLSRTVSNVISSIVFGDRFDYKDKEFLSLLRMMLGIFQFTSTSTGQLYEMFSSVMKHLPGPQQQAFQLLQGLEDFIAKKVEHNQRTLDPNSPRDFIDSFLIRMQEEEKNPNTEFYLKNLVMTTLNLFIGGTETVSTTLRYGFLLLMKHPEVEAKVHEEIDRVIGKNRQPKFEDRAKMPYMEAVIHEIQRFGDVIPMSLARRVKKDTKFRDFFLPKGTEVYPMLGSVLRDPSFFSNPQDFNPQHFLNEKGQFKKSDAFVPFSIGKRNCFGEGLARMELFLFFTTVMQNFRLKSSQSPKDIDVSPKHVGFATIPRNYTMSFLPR
The settings on record: literature reported Km; metabolite hydroxyl-coumarine; cited from earlier work.

SMILES strings stand for the structures.

T2 sequence (P08684 whole entry): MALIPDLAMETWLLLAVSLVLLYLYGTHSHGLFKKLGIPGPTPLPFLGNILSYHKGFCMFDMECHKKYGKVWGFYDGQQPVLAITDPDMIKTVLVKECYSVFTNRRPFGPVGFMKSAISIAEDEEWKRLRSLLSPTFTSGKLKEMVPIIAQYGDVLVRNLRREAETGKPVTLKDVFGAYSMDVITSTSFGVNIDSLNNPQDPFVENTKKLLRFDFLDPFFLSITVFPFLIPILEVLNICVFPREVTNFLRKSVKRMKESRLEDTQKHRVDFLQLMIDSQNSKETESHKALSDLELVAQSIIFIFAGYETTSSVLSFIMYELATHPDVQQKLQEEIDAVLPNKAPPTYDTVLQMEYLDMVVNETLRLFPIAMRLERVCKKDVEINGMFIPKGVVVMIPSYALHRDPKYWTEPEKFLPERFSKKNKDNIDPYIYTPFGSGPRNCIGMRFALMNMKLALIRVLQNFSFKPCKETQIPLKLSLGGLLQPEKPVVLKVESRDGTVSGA
Sequence of CYP2C9 (P11712 whole entry): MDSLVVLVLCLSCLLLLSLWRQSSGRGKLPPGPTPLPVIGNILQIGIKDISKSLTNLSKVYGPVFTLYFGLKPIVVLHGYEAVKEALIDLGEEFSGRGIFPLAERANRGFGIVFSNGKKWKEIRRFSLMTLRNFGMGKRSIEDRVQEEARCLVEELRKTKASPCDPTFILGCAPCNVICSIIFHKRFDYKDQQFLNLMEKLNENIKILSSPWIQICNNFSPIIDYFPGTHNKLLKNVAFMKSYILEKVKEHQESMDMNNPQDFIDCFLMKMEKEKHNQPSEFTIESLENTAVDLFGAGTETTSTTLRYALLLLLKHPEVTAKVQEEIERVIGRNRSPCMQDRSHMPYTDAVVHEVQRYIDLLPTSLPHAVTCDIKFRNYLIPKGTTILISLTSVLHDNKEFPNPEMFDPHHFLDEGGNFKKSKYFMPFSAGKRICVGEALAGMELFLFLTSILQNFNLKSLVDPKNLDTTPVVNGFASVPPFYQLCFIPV

In the case of `CC(C)(O)c1ccccc1CC[C@@H](SCC1(CC(=O)O)CC1)c1cccc(/C=C/c2ccc3ccc(Cl)cc3n2)c1` [Montelukast], the IC50 in data set [1] worked out at 521 nM.

For the molecule `CCOc1ccc(NC(C)=O)cc1` [Phenacetin], the “Inhibition of CYP3A4 by probe substrate” value in data set [2] is on record as “weakly inhibit”. Also, the “Inhibition of CYP2B6 by probe substrate” value in data set [3] was “weakly inhibit”. For `O=C(O)Cc1ccccc1Nc1c(Cl)cccc1Cl` [Diclofenac], in data set [4], the Km is 22 ± 11 µM.

For the molecule `CC(=O)O[C@H]1C(=O)[C@@]2(C)[C@H]([C@H](OC(=O)c3ccccc3)[C@]3(O)C[C@H](OC(=O)[C@H](O)[C@@H](NC(=O)c4ccccc4)c4ccccc4)C(C)=C1C3(C)C)[C@]1(OC(C)=O)CO[C@@H]1C[C@@H]2O` [Paclitaxel], the Km in data set [5] is 11.5 ± 7.5 µM.

With `CC(NC(C)(C)C)C(=O)c1cccc(Cl)c1` (centres unmarked) [Bupropion], the Km in data set [6] is 103 ± 7.65 µM. As to `C[C@]12CC[C@H]3[C@@H](CCC4=CC(=O)CC[C@@]43C)[C@@H]1CC[C@@H]2O` [Testosterone], in data set [7], the Michaelis constant (Km) is 48.5 ± 3.75 µM. Consider `O=c1ccc2ccccc2o1` [Coumarin], for which, in data set [8], the Km was 1.17 ± 0.118 µM.

A word on the IC50: it is the concentration needed to halve the response being measured. As usually defined, the Km is the concentration of substrate that gives half-maximal velocity.
